In patent US9273033B2, “Substituted pyridone derivatives as PDE10 inhibitors” (Merck Sharp & Dohme Corp., priority 2012, dated 2016):

Target: human PDE10A2 (Homo sapiens (Human), UniProt Q9Y233)
Test: PDE10 fluorescence polarization (IMAP FP) inhibition assay
Format: biochemical
Settings: human PDE10A2, FAM-labeled cAMP substrate, read-out: PDE10A Ki
Procedure: The activity of the compounds in accordance with the present invention as PDE10 inhibitors may be readily determined without undue experimentation using a fluorescence polarization (FP) methodology that is well known in the art (Huang, W., et al., J. Biomol Screen, 2002, 7: 215).
In a typical experiment the PDE10 inhibitory activity of the compounds of the present invention was determined in accordance with the following experimental method. PDE10A2 was amplified from human fetal brain cDNA (Clontech, Mountain View, Calif.) using a forward primer corresponding to nucleotides 56-77 of human PDE10A2 (Accession No. AF127480, Genbank Identifier 4894716), containing a Kozak consensus sequence, and a reverse primer corresponding to nucleotides 2406-2413 of human PDE10A2 (Accession No. AF127480, Genbank Identifier 4894716). Amplification with Easy-A polymerase (Stratagene, La Jolla, Calif.) was 95° C. for 2 minutes followed by thirty three cycles of 95° C. for 40 seconds, 55° C. for 30 seconds, and 72° C. for 2 minutes 48 seconds. Final extension was 72° C. for 7 minutes. The PCR product was TA cloned into pcDNA3.2-TOPO (Invitrogen, Carlsbad, Calif.) according to standard protocol. AD293 cells with 70-80% confluency were transiently transfected with human PDE10A2/pcDNA3.2-TOPO using Lipofectamine 2000 according to manufacturer specifications (Invitrogen, Carlsbad, Calif.). Cells were harvested 48 hours post-transfection and lysed by sonication (setting 3, 10×5 sec pulses) in a buffer containing 20 mM HEPES, 1 mM EDTA and protease inhibitor cocktail (Roche). Lysate was collected by centrifugation at 75,000×g for 20 minutes. Supernatant containing the cytoplasmic fraction was used for evaluation of PDE10A2 activity. The fluorescence polarization assay for cyclic nucleotide phosphodiesterases was performed using an IMAP® FP kit supplied by Molecular Devices, Sunnyvale, Calif. (product # R8139). IMAPU technology has been applied previously to phosphodiesterase assays (Huang, W., et al., J. Biomol Screen, 2002, 7: 215). Assays were performed at room temperature in 384-well microtiter plates with an incubation volume of 20.2 μL. Solutions of test compounds were prepared in DMSO and serially diluted with DMSO to yield 8 μL of each of 10 solutions differing by 3-fold in concentration, at 32 serial dilutions per plate. 100% inhibition is determined using a known PDE10 inhibitor, which can be any compound that is present at 5,000 times its Ki value in the assay described as follows, such as papaverine (see Siuciak, et al. Neuropharmacology (2006) 51:386-396; Becker, et al. Behav Brain Res (2008) 186(2):155-60; Threlfell, et al., J Pharmacol Exp Ther (2009) 328(3):785-795), 2-{4-[pyridin-4-yl-1-(2,2,2-trifluoroethyl)-1H-pyrazol-3-yl]phenoxymethyl}quinoline succinic acid or 2-[4-(1-methyl-4-pyridin-4-yl-1H-pyrazol-3-yl)-phenoxymethyl]quinoline succinic acid (see Schmidt, et al. J Pharmacol Exp Ther (2008) 325:681-690; Threlfell, et al., J Pharmacol Exp Ther (2009) 328(3): 785-795). 0% of inhibition is determined by using DMSO (1% final concentrations).
A Labcyte Echo 555 (Labcyte, Sunnyvale, Calif.) is used to dispense 200 nL from each well of the titration plate to the 384 well assay plate. A solution of enzyme (1/1600 dilution from aliquots; sufficient to produce 20% substrate conversion) and a separate solution of FAM-labeled cAMP PDE from Molecular Devices (product # R7506), at a final concentration of 50 nM are made in the assay buffer (10 mM Tris HCl, pH 7.2, 10 mM MgCl2, 0.05% NaN3 0.01% Tween-20, and 1 mM DTT). The enzyme and the substrate are then added to the assay plates in two consecutive additions of 10 μL, and then shaken to mix. The reaction is allowed to proceed at room temperature for 30 minutes. A binding solution is then made from the kit components, comprised of 80% Solution A, 20% Solution B and binding reagent at a volume of 1/600 the total binding solution.

human PDE10A2, sequence (Q9Y233 267-1055): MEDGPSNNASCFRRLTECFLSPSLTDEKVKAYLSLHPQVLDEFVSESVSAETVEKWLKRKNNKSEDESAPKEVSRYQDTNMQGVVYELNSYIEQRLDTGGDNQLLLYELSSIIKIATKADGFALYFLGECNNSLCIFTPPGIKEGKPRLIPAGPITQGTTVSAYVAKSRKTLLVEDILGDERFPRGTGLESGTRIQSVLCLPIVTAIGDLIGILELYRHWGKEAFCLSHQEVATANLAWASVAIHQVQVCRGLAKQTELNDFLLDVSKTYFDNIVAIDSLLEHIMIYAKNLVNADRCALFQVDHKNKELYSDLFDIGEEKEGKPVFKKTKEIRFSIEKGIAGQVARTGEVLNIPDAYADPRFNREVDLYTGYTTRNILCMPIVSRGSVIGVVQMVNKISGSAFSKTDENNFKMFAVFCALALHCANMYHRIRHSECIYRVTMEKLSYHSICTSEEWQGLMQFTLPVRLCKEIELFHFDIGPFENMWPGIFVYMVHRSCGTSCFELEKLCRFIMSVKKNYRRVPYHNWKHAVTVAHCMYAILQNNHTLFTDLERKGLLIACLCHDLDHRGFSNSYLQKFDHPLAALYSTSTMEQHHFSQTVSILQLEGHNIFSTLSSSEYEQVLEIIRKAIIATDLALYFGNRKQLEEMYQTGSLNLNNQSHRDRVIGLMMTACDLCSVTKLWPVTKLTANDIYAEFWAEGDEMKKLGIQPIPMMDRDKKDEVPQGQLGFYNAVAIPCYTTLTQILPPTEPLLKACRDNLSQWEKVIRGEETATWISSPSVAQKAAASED

Compound | Ki [nM]
[2H]C([2H])([2H])n1cc(-c2cnc(C)nc2OC[C@H]2C[C@@H]2c2ccc(C)cn2)ccc1=O [Example 48, 1-methyl-5-(2-methyl-4-(((1S,2S)-2-(5-methylpyridin-2-yl)cyclopropyl)methoxy)pyrimidin-5-yl)pyridin-2(1H)-one] | 1.7
Cc1ccc([C@H]2C[C@@H]2COc2nc(C)ncc2-c2ccc(=O)n(CC3CC3)c2)nc1 [Example 49, 1-(cyclopropylmethyl)-5-(2-methyl-4-(((1S,2S)-2-(5-methylpyridin-2-yl)cyclopropyl)methoxy)pyrimidin-5-yl)pyridin-2(1H)-one] | 0.983
COc1ccc([C@H]2C[C@@H]2COc2nc(C)ncc2-c2ccc(=O)n(CC3CC3)c2)nc1 [Example 53, 1-(cyclopropylmethyl)-5-(4-(((1S,2S)-2-(5-methoxypyridin-2-yl)cyclopropyl)methoxy)-2-methylpyrimidin-5-yl)pyridin-2(1H)-one] | 0.377
COc1cc(-c2cnc(C)nc2OC[C@H]2C[C@@H]2c2ccc3c(n2)CCC3)cn(C)c1=O [Example 54, 5-(4-(((1S,2S)-2-(6,7-dihydro-5H-cyclopenta[b]pyridin-2-yl)cyclopropyl)methoxy)-2-methylpyrimidin-5-yl)-3-methoxy-1-methylpyridin-2(1H)-one] | 0.045
CCc1cc(-c2cnc(C)nc2OC[C@H]2C[C@@H]2c2ccc(C)cn2)cn(C)c1=O [Example 55, 3-ethyl-1-methyl-5-(2-methyl-4-(((1S,2S)-2-(5-methylpyridin-2-yl)cyclopropyl)methoxy)pyrimidin-5-yl)pyridin-2(1H)-one] | 0.347
COc1cc(-c2cnc(C)nc2OC[C@H]2C[C@@H]2c2ccc3ccccc3n2)cn(C)c1=O [Example 56, 3-methoxy-1-methyl-5-(2-methyl-4-(((1S,2S)-2-(quinolin-2-yl)cyclopropyl)methoxy)pyrimidin-5-yl)pyridin-2(1H)-one] | 0.004
COc1cc(-c2cnc(C)nc2OC[C@H]2C[C@@H]2c2ccc(C)cn2)cn(C)c1=O [Example 57, 3-methoxy-1-methyl-5-(2-methyl-4-(((1S,2S)-2-(5-methylpyridin-2-yl)cyclopropyl)methoxy)pyrimidin-5-yl)pyridin-2(1H)-one] | 0.349
Cc1ncc(-c2ccc(=O)n(C)c2C)c(OC[C@H]2C[C@@H]2c2ccc3c(n2)CCC3)n1 [Example 58, 5-(4-(((1S,2S)-2-(6,7-dihydro-5H-cyclopenta[b]pyridin-2-yl)cyclopropyl)methoxy)-2-methylpyrimidin-5-yl)-1,6-dimethylpyridin-2(1H)-one] | 0.481
Cc1ccc([C@H]2C[C@@H]2COc2nc(C)ncc2-c2cc(C#N)c(=O)n(C)c2C)nc1 [Example 59, 1,6-dimethyl-5-(2-methyl-4-(((1S,2S)-2-(5-methylpyridin-2-yl)cyclopropyl)methoxy)pyrimidin-5-yl)-2-oxo-1,2-dihydropyridine-3-carbonitrile] | 0.426
COc1ccc([C@H]2C[C@@H]2COc2nc(C)ncc2-c2cc(C#N)c(=O)n(C)c2C)nc1 [Example 60, 5-(4-(((1S,2S)-2-(5-methoxypyridin-2-yl)cyclopropyl)methoxy)-2-methylpyrimidin-5-yl)-1,6-dimethyl-2-oxo-1,2-dihydropyridine-3-carbonitrile] | 0.117
Cc1ccc([C@H]2C[C@@H]2COc2nc(C)ncc2-c2cc(C)c(=O)n(C)n2)nc1 [Example 65, 2,4-dimethyl-6-(2-methyl-4-(((1S,2S)-2-(5-methylpyridin-2-yl)cyclopropyl)methoxy)pyrimidin-5-yl)pyridazin-3(2H)-one] | 1.83
Cc1ccc([C@H]2C[C@@H]2COc2nc(C)ncc2-c2nn(C)c(=O)cc2C)nc1 [Example 68, 2,5-dimethyl-6-(2-methyl-4-(((1S,2S)-2-(5-methylpyridin-2-yl)cyclopropyl)methoxy)pyrimidin-5-yl)pyridazin-3(2H)-one] | 9.68
CCn1ccc(-c2cnc(C)nc2OC[C@H]2C[C@@H]2c2ccc(C)cn2)cc1=O [Example 69, 1-ethyl-4-(2-methyl-4-(((1S,2S)-2-(5-methylpyridin-2-yl)cyclopropyl)methoxy)pyrimidin-5-yl)pyridin-2(1H)-one] | 1.43

Continued, values first:

Ki [nM] | Compound
3.65 | COC(=O)Cn1cc(-c2cnc(C)nc2OC[C@H]2C[C@@H]2c2ccc(OC)cn2)ccc1=O [Example 47, methyl 2-(5-(4-(((1S,2S)-2-(5-methoxypyridin-2-yl)cyclopropyl)methoxy)-2-methylpyrimidin-5-yl)-2-oxopyridin-1(2H)-yl)acetate]
0.946 | [2H]C([2H])([2H])n1cc(-c2cnc(C)nc2OC[C@H]2C[C@@H]2c2ccc(OC)cn2)ccc1=O [Example 51, 5-(4-(((1S,2S)-2-(5-methoxypyridin-2-yl)cyclopropyl)methoxy)-2-methylpyrimidin-5-yl)-1-methylpyridin-2(1H)-one]
3.11 | COc1ccc([C@H]2C[C@@H]2COc2nc(C)ncc2-c2ccc(=O)n(CC(F)(F)F)c2)nc1 [Example 52, 5-(4-(((1S,2S)-2-(5-methoxypyridin-2-yl)cyclopropyl)methoxy)-2-methylpyrimidin-5-yl)-1-(2,2,2-trifluoroethyl)pyridin-2(1H)-one]
16.7 | COc1ccc([C@H]2C[C@@H]2COc2nc(C)ncc2-c2cn(C)c(=O)cn2)nc1 [Example 61, 5-(4-(((1S,2S)-2-(5-methoxypyridin-2-yl)cyclopropyl)methoxy)-2-methylpyrimidin-5-yl)-1-methylpyrazin-2(1H)-one]
12.9 | Cc1ccc([C@H]2C[C@@H]2COc2nc(C)ncc2-c2cn(C)c(=O)cn2)nc1 [Example 62, 1-methyl-5-(2-methyl-4-(((1S,2S)-2-(5-methylpyridin-2-yl)cyclopropyl)methoxy)pyrimidin-5-yl)pyrazin-2(1H)-one]
4.42 | COc1ccc([C@H]2C[C@@H]2COc2nc(C)ncc2-c2ccc(=O)[nH]n2)nc1 [Example 63, 6-(4-(((1S,2S)-2-(5-methoxypyridin-2-yl)cyclopropyl)methoxy)-2-methylpyrimidin-5-yl)pyridazin-3(2H)-one]
2.83 | COc1ccc([C@H]2C[C@@H]2COc2nc(C)ncc2-c2ccc(=O)n(C)n2)nc1 [Example 64, 6-(4-(((1S,2S)-2-(5-methoxypyridin-2-yl)cyclopropyl)methoxy)-2-methylpyrimidin-5-yl)-2-methylpyridazin-3(2H)-one]
1.23 | COc1ccc([C@H]2C[C@@H]2COc2nc(C)ncc2-c2cc(C)c(=O)n(C)n2)nc1 [Example 66, 6-(4-(((1S,2S)-2-(5-methoxypyridin-2-yl)cyclopropyl)methoxy)-2-methylpyrimidin-5-yl)-2,4-dimethylpyridazin-3(2H)-one]
5.55 | COc1ccc([C@H]2C[C@@H]2COc2nc(C)ncc2-c2nn(C)c(=O)cc2C)nc1 [Example 67, 6-(4-(((1S,2S)-2-(5-methoxypyridin-2-yl)cyclopropyl)methoxy)-2-methylpyrimidin-5-yl)-2,5-dimethylpyridazin-3(2H)-one]
1.25 | COc1ccc([C@H]2C[C@@H]2COc2nc(C)ncc2-c2ccn(C)c(=O)c2)nc1 [Example 70, 4-(4-(((1S,2S)-2-(5-methoxypyridin-2-yl)cyclopropyl)methoxy)-2-methylpyrimidin-5-yl)-1-methylpyridin-2(1H)-one]
